Test results published in patent US20230257393A1, “MACROMOLECULE-SUPPORTED THIENOAZEPINE COMPOUNDS, AND USES THEREOF” (BOLT BIOTHERAPEUTICS, INC., priority 2020, published 2023).
Where two headings read alike, the source gives them in different places.

Experiments:
human TLR8 = molecular target: T1, human TLR8 (Homo sapiens, UniProt Q9NR97); test: HEK Reporter Assay, HEK293 NFKB reporter cells expressing human TLR8; assay type: cell-based; details: read-out: HEK293 hTLR8 EC50
T1 construct: host or cells: HEK293 reporter cells
T1 sequence (Q9NR97 27-1041): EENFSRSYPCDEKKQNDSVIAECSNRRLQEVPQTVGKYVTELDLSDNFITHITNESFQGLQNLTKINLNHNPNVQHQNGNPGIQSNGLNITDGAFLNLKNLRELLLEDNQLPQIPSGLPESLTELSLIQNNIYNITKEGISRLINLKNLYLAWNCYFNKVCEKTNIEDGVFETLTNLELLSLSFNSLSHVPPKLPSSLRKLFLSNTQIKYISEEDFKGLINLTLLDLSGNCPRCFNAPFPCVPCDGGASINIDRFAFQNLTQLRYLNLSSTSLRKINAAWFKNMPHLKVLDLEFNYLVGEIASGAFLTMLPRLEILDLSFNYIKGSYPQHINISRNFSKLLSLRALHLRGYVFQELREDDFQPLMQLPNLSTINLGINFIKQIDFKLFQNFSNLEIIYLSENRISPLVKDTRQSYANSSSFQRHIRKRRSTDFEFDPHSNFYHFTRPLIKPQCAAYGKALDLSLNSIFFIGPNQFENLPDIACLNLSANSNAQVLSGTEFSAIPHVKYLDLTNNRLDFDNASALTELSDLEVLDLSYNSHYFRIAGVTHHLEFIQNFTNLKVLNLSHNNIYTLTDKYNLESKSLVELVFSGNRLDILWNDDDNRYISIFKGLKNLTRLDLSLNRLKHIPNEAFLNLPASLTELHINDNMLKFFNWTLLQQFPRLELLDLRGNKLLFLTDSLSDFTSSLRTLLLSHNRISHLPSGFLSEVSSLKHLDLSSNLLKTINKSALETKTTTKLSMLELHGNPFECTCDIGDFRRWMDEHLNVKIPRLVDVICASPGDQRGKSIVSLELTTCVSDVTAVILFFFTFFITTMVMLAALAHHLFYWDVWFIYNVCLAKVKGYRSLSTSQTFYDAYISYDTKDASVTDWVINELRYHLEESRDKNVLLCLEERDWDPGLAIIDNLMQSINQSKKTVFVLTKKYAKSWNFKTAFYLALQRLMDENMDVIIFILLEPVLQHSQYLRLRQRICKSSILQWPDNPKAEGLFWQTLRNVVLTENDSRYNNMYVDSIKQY
Procedure: (§1) Each compound was synthesized, purified, and characterized by mass spectrometry and shown to have the mass indicated. Additional experimental procedures are found in the Examples. Activity against HEK293 NFKB reporter cells expressing human TLR7 or human TLR8 was measured according to Example 202.
(§2) HEK293 reporter cells expressing human TLR7 or human TLR8 were purchased from Invivogen and vendor protocols were followed for cellular propagation and experimentation. Briefly, cells were grown to 80-85% confluence at 5% CO2 in DMEM supplemented with 10% FBS, Zeocin, and Blasticidin. Cells were then seeded in 96-well flat plates at 4×10^4 cells/well with substrate containing HEK detection medium and immunostimulatory molecules. Activity was measured using a plate reader at 620-655 nm wavelength.

human TLR7 = molecular target: T2, human TLR7 (Homo sapiens, UniProt Q9NYK1); test: HEK Reporter Assay, HEK293 NFKB reporter cells expressing human TLR7; assay type: cell-based; details: read-out: HEK293 hTLR7 EC50
T2 construct: host or cells: HEK293 reporter cells
T2 sequence (Q9NYK1 27-1049): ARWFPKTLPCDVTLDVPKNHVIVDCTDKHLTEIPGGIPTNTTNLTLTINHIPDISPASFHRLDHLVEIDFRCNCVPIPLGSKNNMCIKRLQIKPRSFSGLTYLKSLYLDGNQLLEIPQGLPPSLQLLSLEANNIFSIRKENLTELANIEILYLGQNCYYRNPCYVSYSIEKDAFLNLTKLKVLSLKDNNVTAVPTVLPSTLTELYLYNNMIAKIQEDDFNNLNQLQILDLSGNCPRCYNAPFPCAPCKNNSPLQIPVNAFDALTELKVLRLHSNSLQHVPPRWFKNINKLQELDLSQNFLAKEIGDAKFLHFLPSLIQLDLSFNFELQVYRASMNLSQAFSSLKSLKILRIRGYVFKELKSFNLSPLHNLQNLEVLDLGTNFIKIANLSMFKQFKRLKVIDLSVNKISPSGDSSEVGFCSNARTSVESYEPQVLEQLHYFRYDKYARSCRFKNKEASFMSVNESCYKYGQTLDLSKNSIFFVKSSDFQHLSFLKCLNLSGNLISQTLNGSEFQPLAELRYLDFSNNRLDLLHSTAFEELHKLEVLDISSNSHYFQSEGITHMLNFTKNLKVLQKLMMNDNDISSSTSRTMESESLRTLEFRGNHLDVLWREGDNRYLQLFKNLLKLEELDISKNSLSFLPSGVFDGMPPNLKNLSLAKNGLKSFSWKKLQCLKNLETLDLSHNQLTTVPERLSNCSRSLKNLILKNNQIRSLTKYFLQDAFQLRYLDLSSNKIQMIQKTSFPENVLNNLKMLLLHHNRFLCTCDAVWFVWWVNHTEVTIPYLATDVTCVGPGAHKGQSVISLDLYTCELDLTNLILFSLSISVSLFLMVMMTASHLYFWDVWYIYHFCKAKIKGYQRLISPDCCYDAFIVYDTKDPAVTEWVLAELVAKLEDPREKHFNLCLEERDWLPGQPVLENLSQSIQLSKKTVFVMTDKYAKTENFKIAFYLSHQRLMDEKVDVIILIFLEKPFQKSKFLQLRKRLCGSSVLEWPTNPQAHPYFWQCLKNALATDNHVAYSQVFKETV
Procedure: as §1, §2

SMILES | EC50 (human TLR8; Table 1a) [µM] | EC50 (human TLR7; Table 1a) [µM] | EC50 (human TLR8; Table 1c) [µM] | EC50 (human TLR7; Table 1c) [µM] | further results
CCONC(=O)C1=Cc2sc(CC3CNC3)cc2N=C(N)C1 [TAZ-250] | – | – | ≥ 9 | ≥ 9 | –
CCCN(Cc1ccc(CN(C)C)c(C(F)(F)F)n1)C(=O)C1=Cc2sc(CCCCCNC(=O)OC(C)(C)C)cc2N=C(N)C1 [TAZ-146] | – | – | ≥ 9 | ≥ 9 | –
CCCN(OCC)C(=O)C1=Cc2sc(CN3CCN(c4ccc(C(=O)OC(C)(C)C)cc4)CC3)cc2N=C(N)C1 [TAZ-205] | – | – | ≥ 9 | ≥ 9 | –
CCCN(CCC)C(=O)C1=Cc2sc(COCCNC(=O)OC(C)(C)C)cc2N=C(N)C1 [TAZ-80] | – | – | – | – | EC50 (human TLR8; Table 1b): 3.79 µM; EC50 (human TLR7; Table 1b): 4 µM
CN(C)Cc1ccc(CN(CCC(F)(F)F)C(=O)C2=Cc3sc(CCCCCN)cc3N=C(N)C2)cc1 [TAZ-117] | – | – | ≥ 9 | ≥ 9 | –
CCCN(OCC)C(=O)C1=Cc2sc(CN3CCCN(C(=O)OC(C)(C)C)CC3)cc2N=C(N)C1 [TAZ-226] | – | – | 4.43 | 0.436 | –
CCCN(Cc1cnc(CN(C)C)c(C(F)(F)F)c1)C(=O)C1=Cc2sc(CCCCCNC(=O)OC(C)(C)C)cc2N=C(N)C1 [TAZ-128] | – | – | ≥ 9 | ≥ 9 | –
CCCN(CCC)C(=O)C1=Cc2sc(C(=O)Nc3ccc(N4CCC(C(=O)NCCNC(=O)OC(C)(C)C)CC4)nc3)cc2N=C(N)C1 [TAZ-3, tert-butyl (2-(1-(5-(5-amino-7-(dipropylcarbamoyl)-6H-thieno[3,2-b]azepine-2-carboxamido)pyridin-2-yl)piperidine-4-carboxamido)ethyl)carbamate] | > 9 | > 9 | – | – | –
CCCN(OCC)C(=O)C1=Cc2sc(CN3CC4(CNC4)C3)cc2N=C(N)C1 [TAZ-207] | – | – | ≥ 9 | ≥ 9 | –

Second part, led by results:

EC50 (human TLR8; Table 1a) [µM] | EC50 (human TLR7; Table 1a) [µM] | EC50 (human TLR8; Table 1c) [µM] | EC50 (human TLR7; Table 1c) [µM] | SMILES | further results
> 9 | > 9 | – | – | CCCN(CCC)C(=O)C1=Cc2sc(CCCCCNC(=O)OC(C)(C)C)cc2N=C(N)C1 [TAZ-13, tert-butyl N-[5-[5-amino-7-(dipropylcarbamoyl)-6H-thieno[3,2-b]azepin-2-yl]pentyl]carbamate] | –
> 9 | > 9 | – | – | CCCN(CCC)C(=O)C1=Cc2sc(C)cc2N=C(N)C1 [TAZ-7, 5-amino-2-methyl-N,N-dipropyl-6H-thieno[3,2-b]azepine-7-carboxamide] | –
> 9 | > 9 | – | – | CCCN(CCC)C(=O)C1=Cc2sc(C(=O)Nc3ccccc3)cc2N=C(N)C1 [TAZ-23, 5-amino-N2-phenyl-N7,N7-dipropyl-6H-thieno [3,2-b]azepine-2,7-dicarboxamide] | –
> 9 | > 9 | – | – | CCCN(CCC)C(=O)C1=Cc2sc(C(=O)O)cc2N=C(N)C1 [TAZ-22, 5-amino-7-(dipropylcarbamoyl)-6H-thieno[3,2-b]azepine-2-carboxylic acid] | –
> 9 | > 9 | – | – | CCCN(CCC)C(=O)C1=Cc2sc(C(=O)OC)cc2N=C(N)C1 [TAZ-20, methyl 5-amino-7-(dipropylcarbamoyl)-6H-thieno[3,2-b]azepine-2-carboxylate] | –
> 9 | > 9 | – | – | CCCN(CCC)C(=O)C1=Cc2sc(-c3ccccc3)cc2N=C(N)C1 [TAZ-18, 5-amino-2-phenyl-N,N-dipropyl-6H-thieno[3,2-b]azepine-7-carboxamide] | –
> 9 | > 9 | – | – | CCCN(CCC)C(=O)C1=Cc2sc3ccccc3c2N=C(N)C1 [TAZ-28, 2-amino-N,N-dipropyl-3H-benzo[4,5]thieno[3,2-b]azepine-4-carboxamide] | –
> 9 | > 9 | – | – | CCCN(CCC)C(=O)C1=Cc2sc(-c3cn[nH]c3)cc2N=C(N)C1 [TAZ-21, 5-amino-N,N-dipropyl-2-(1H-pyrazol-4-yl)-6H-thieno[3,2-b]azepine-7-carboxamide] | –
> 9 | > 9 | – | – | CCCN(CCC)C(=O)C1=Cc2sc(C(=O)NCC)cc2N=C(N)C1 [TAZ-24, 5-amino-N2-ethyl-N7,N7-dipropyl-6H-thieno[3,2-b]azepine-2,7-dicarboxamide] | –
